According to patent US7745446B2, “Pyrazolo[1,5-c]pyrimidines” (Bayer Schering Pharma Aktiengesellschaft, priority 2004, dated 2010):

Legend:
[1] = system: phosphorylated Akt1 (Ser473) in MCF7 cells; assay: Cellular PI3K/Akt pathway assay (pAkt-ELISA); assay type: cell-based; conditions: Homo sapiens, β-Heregulin stimulation, 48 h, read-out: Akt pathway inhibition (pAkt-ELISA): IC50
Protocol: In order to study the cellular activity of the compounds according to the invention, an ELISA-based assay has been established. The assay is based on a Sandwich ELISA kit (PathScan™ Phospho-Akt1 (Ser473); Cell Signaling, USA; #7160).
The assay detects endogenous levels of phosphorylated Akt1 protein. A phospho-Akt (Ser473) antibody (Cell Signaling, USA; #9271) has been coated onto the microwells. After incubation with cell lysates, the phosphorylated Akt protein is captured by the coated antibody. Following extensive washing, Akt1 monoclonal antibody (Cell Signaling, USA; #2967) is added to detect the captured phospho-Akt1 protein. HRP-linked anti-mouse antibody (Cell Signaling, USA; #7076) is then used to recognize the bound detection antibody. HRP substrate (=TMB; Cell Signaling, USA; #7160) is added to develop colour. The magnitude of optical density for this developed color is proportional to the quantity of phosphorylated Akt1 protein.
MCF7 cells (ATCC HTB-22) are seeded into 96 well fate bottom plates at a density of 10000 cells/well. 24 hours after seeding the cells are starved using estrogen-free medium (IMEM including 0.1% charcoal treated FCS). […] To stimulate Akt phosphorylation, β-Heregulin (20 ng/ml) is added in parallel to the compounds. Wells containing unstimulated control cells (no β-Heregulin stimulation) are incubated with or without the diluted compound. Wells containing untreated control cells (no compound) are filled with medium containing 0.5% v:v DMSO and are with P-Heregulin or are not stimulated.
Cells are harvested under nondenaturating conditions and lysed with brief sonification in 1× cell lyses buffer (20 mM Tris (pH7.5), 150 mM NaCl, 1 mM ethylene diaminetetraacetate (EDTA), 1 mM ethylene glycolbis-(2-aminoethyl)-N,N,N′,N′-tetraacetic acid (EGTA), 1% Triton X-100, 2.5 mM sodium pyrophosphate, 1 mM β-glycerolphosphate, 1 mM Na3VO4, 1 μg/ml leupeptin). The lysate is microcentrifuged for 10 minutes at 4° C. and the supernatant is transferred to a new tube. 100 μl of sample diluent (0.1% tween-20, 0.1% sodium azide in 20× PBS) are added to a microcentrifuge tube and 100 μl of cell lysate are transferred into the tube and vortexed. 100 μl of each diluted cell lysate are added to the appropriate well (phospho-Akt (Ser473) antibody coated microwells; Cell Signaling, USA; #7160) and incubated overnight at 4° C. The plates are washed 4 times with 1× wash buffer (1% tween-20, 0.33% thymol, in 20×PBS). Then 100 μl of detection antibody (Akt1 (2H10) monoclonal detection antibody; Cell Signaling, USA; #2967) are added to each well and incubated for 1 h at 37° C. The washing procedure is repeated between each step. […] The absorbance is read at 450 nm (Wallac Victor2; Perkin Elmer, USA) within 30 minutes after adding STOP solution. […]

[2] = system: MCF7 cells; assay: Cellular proliferation/cytotoxicity assay (Alamar Blue), MCF7; conditions: Homo sapiens, MCF7, 48 h, read-out: Anti-proliferative/cytotoxic activity: IC50 MCF7
[3] = system: phosphorylated GSK3 (Ser9) in MCF7 cells; assay: Cellular pGSK3 assay (pGSK3-ELISA); assay type: cell-based; conditions: Homo sapiens, 48 h, read-out: GSK3 inhibition (pGSK3-ELISA): IC50
Protocol: In order to study the cellular activity of the compounds according to the invention, an ELISA-based assay has been established for the phosphorylated glycogen synthetase kinase 3, GSK3. The assay is based on a solid phase sandwich ELISA that detects endogenous levels of the phosphorylated GSK3 (BioSource International, Inc.; Catalog #KH00461). A phospho-GSK3 (Ser9) antibody has been coated onto the microwells. After incubation with cell lysates, the coated antibody captures the phosphorylated GSK3 protein. Following extensive washing, GSK3 polyclonal antibody is added to detect the captured phospho-GSK3 protein. […] (anti-rabbit IgG-HRP) is then used to recognize the bound detection antibody. After the second incubation and washing to remove all the excess anti-rabbit IgG-HRP, a substrate solution is added, which is acted upon by the bound enzyme to produce color. The intensity of this colored product is directly proportional to the concentration of […] [pS9] present in the original specimen.
MCF7 cells (ATCC HTB-22) are seeded into 96 well plates at a density of 10000 cells/well.
Cells are harvested and lysed with brief vortexing in cell extraction buffer (10 mM Tris, pH 7.4, 100 mM NaCl, 1 mM EDTA, 1 mM EGTA, 1 mM NaF, 20 mM Na4P2O7, 2 mM Na3VO4, 1% Triton X-100, 10% glycerol, 0.1% SDS, 0.5% deoxycholate, 1 mM PMSF). The lysate are centrifuged for 10 minutes at 4° C. and the supernatant transferred to a new tube. 50 μl of sample diluent (standard diluent buffer, Biosource) are added and 100 μl of cell lysate transferred into the tube and vortexed. 100 μl of each diluted cell lysate are added to the appropriate well (phospho-GSK3 (Ser9) antibody coated microwells; BioSource) and incubated for 3 h at room temperature. The plates are washed 4 times with 1× wash buffer (Biosource). […] The absorbance is measured at 450 nm (Wallac Victor2; Perkin Elmer, USA) within 30 minutes after adding Stop solution. The analysis of the data is performed using a statistical program (Microsoft Excel, USA) and the inhibition of pGSK3 phosphorylation is determined.

IC50 [1] [µM] | IC50 [3] [µM] | Structure (SMILES) | IC50 [2] [µM]
≤ 6 |  | COc1cccc(-c2ccc(-c3cc4c(Br)cnn4c(Nc4ccc(NC(=O)c5ccc(CN)cc5)cc4)n3)cc2)c1 [Example 87, 4-Aminomethyl-N-{4-[3-bromo-5-(3′-methoxy-biphenyl-4-yl)-pyrazolo[1,5-c]pyrimidin-7-ylamino]-phenyl}-benzamide] | ≤ 16.9
≤ 6 | < 10 | O=C(Nc1cccc(Nc2nc(-c3cccc4c3oc3ccccc34)cc3ccnn23)c1)c1ccc2c(c1)CCNC2 [Example 63, 1,2,3,4-Tetrahydro-isoquinoline-6-carboxylic acid [3-(5-dibenzofuran-4-yl-pyrazolo[1,5-c]pyrimidin-7-ylamino)-phenyl]-amide] | ≤ 16.9
≤ 6 | < 10 | COc1cccc(-c2ccc(-c3cc4ccnn4c(Nc4ccc(NC(=O)c5ccc(CN)cc5)cc4)n3)cc2)c1 [Example 59, 4-Aminomethyl-N-{4-[5-(3′-methoxy-biphenyl-4-yl)-pyrazolo[1,5-c]pyrimidin-7-ylamino]-phenyl}-benzamide] | ≤ 16.9
≤ 6 | < 10 | NCCCC(=O)Nc1ccc(Nc2nc(-c3cccc4c3oc3ccccc34)cc3ccnn23)cc1 [Example 24, 4-Amino-N-[4-(5-dibenzofuran-4-yl-pyrazolo[1,5-c]pyrimidin-7-ylamino)-phenyl]-butyramide] | ≤ 16.9
